According to US20220274938A1, “5-[(1S)-1-(4-BROMOPHENOXY)ETHYL]-2H-TETRAZOLE DERIVATIVES AND RELATED COMPOUNDS AS CLC-1 ION CHANNEL INHIBITORS FOR TREATING NEUROMUSCULAR DISORDERS” (NMD PHARMA A/S, priority 2019, published 2022):

Target: T1, CIC-1 ion channel (Rattus norvegicus, UniProt P35524)
T1 construct: CIC-1 channels in native tissue of rat skeletal muscle fibres; from tissue; host or cells: whole soleus muscle of 12-14 week old Wistar rats
T1 sequence (P35524 1-994): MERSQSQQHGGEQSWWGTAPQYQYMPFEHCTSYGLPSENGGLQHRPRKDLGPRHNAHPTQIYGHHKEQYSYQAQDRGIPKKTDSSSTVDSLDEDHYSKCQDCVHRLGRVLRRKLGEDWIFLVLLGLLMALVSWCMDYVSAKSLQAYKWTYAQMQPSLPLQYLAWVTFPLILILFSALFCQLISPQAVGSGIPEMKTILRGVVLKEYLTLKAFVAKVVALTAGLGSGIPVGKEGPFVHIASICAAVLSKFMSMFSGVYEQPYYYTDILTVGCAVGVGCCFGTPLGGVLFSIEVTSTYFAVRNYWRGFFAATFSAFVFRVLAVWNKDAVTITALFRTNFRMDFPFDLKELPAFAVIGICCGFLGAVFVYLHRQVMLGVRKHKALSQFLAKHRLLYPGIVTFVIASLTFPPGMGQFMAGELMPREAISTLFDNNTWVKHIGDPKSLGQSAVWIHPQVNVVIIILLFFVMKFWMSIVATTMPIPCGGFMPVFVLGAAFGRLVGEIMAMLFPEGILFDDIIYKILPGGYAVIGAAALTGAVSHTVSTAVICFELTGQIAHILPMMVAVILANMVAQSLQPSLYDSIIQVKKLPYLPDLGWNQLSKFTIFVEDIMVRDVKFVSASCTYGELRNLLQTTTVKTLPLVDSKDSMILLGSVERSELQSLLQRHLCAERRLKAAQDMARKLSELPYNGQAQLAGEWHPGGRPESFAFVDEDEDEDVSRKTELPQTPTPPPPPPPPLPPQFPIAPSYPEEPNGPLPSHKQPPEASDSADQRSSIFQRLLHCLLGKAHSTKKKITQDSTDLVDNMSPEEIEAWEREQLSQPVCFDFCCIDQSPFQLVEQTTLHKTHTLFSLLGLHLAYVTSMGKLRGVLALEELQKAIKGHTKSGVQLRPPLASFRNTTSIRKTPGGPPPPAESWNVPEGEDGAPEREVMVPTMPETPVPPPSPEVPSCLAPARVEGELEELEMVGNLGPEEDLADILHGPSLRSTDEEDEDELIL
Assay: Electrophysiological measurement (Gm, three micro-electrodes) of compound inhibition of CIC-1 in rat soleus muscle fibres
Format: cell-based
Conditions: approx. 30° C., four increasing compound concentrations, read-out: EC50 (inhibition of CIC-1 ion channel, reduction of Gm)
Excerpt: FIG. 1. […] Please note that the drawing illustrates only the impaled fibre although it is part of an intact muscle that contains many such fibres. All electrodes recorded the membrane potential of the fibre and the two peripheral electrodes were used to inject current (−30 nA, 50 ms). The electrodes were inserted with known inter-electrode distances (X1, X2 and X3). After insertion, current was passed first via the V1 electrode and then via the V3 electrode. The resulting deflections in the membrane voltage were measured by the other electrodes. The steady state deflections in membrane potential were measured and divided by the magnitude of the injected current (−30 nA) to obtain transfer resistances. These were next plotted against inter-electrode distances, and fitted to an exponential function (Panel B), from which Gm could be calculated using linear cable theory. The approach described in panel A and B, was repeated for several muscle fibres in the muscle during exposure at increasing concentrations of compound E-8, with approx. 10 fibres at each concentration. Average Gm at each concentration was plotted as a function of compound concentration in panel C, and fitted to a 4-parameter sigmoidal function from which the EC50 value for the compound was obtained (dashed line)
Apparent CIC-1 affinity was reported by the concentration of compound at which 50% of the compound's full inhibition of CIC-1 was observed (EC50).
CIC-1 Cl^− ion channels generate around 80% of the total membrane conductance (Gm) in resting skeletal muscle fibres of most animals including rat and human (Bretag, A H. Muscle chloride channels. Physiological Reviews, 1987, 67, 618-724). […] CIC-1 inhibition would in such recordings be reflected by a reduction of Gm.
Experimentally, Gm was measured in individual fibres of whole rat soleus muscles using a three micro-electrodes technique described in this example and in full detail elsewhere (Riisager et al., Determination of cable parameters in skeletal muscle fibres during repetitive firing of action potentials. Journal of Physiology, 2014, 592, 4417-4429). Briefly, intact rat soleus muscles were dissected out from 12-14 week old Wistar rats and placed in an experimental chamber that was perfused with a standard Krebs Ringer solution containing 122 mM NaCl, 25 mM NaHCO3, 2.8 mM KCl, 1.2 mM KH2PO4, 1.2 mM MgSO4, 1.3 mM CaCl2, 5.0 mM D-glucose. During experiments, the solution was kept at approx. 30° C. and continuously equilibrated with a mixture of 95% O2 and 5% CO2, pH˜7.4. The experimental chamber was placed in Nikon upright microscope that was used to visualize individual muscle fibres and the three electrodes (glass pipettes filled with 2 M potassium citrate). For Gm measurements, the electrodes were inserted into the same fibre with known inter-electrode distances of 0.35-0.5 mm (V1-V2, X1) and 1.1-1.5 mm (V1-V3, X3) (FIG. 1A). The membrane potential of the impaled muscle fibre was recorded by all electrodes. Two of the electrodes were furthermore used to inject 50 ms current pulses of −30 nA. […] The steady state voltage deflection at each distance was divided by the magnitude of current injected (−30 nA) and the resulting transfer resistances were plotted against inter-electrode distance and the data was fitted to a mono-exponential function from which Gm could be calculated using linear cable theory (FIG. 1B).
To establish a dose response relationship, Gm was first determined in 10 muscle fibres in the absence of compound and then at four increasing compound concentrations with Gm determinations in 5-10 fibres at each concentration. The average Gm values at each concentration were plotted against compound concentration and the data was fitted to sigmoidal function to obtain an EC50 value (FIG. 1C).

| SMILES | EC50 |
| --- | --- |
| C[C@H](Oc1ccc(Cl)cc1)C(=O)NOC1CCC1 [Compound C-80, (2S)-2-(4-chlorophenoxy)-N-cyclobutoxypropanamide] | 2.6 µM |
| C[C@H](Oc1ccc(Br)cc1F)c1nn[nH]n1 [Compound E-8, 5-[(1S)-1-(4-bromo-2-fluorophenoxy)ethyl]-2H-1,2,3,4-tetrazole] | 6.6 µM |
